PubChem BioAssay AID1918956 (Molecular Pharmacology Branch, DTP, NCI, 2023)

Tested on: OVCAR-5 complex spheroids, viability
Assay: Anticancer human tumor OVCAR-5 cell line growth inhibition;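 note: spheroids exposed to agents for seven days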;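 for viability, T/C: 100% = DMSO vehicle control wells viability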
Conditions: for IC50: curve of first compound; for viability, T/C: stronger effect = lower value; active = viability on the fitted dose curve at most 10% of control; inactive = the rest
Method in brief: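 Drug combinations with the LSD1 inhibitor iadademstat tested on tumor cells co-cultured as spheroids with endothelial cells and mesenchymal stem cells. Concentrations descended in half-log increments from clinical Cmax or 10 microM.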

COc1cc(Nc2ncc3c(n2)-c2ccc(Cl)cc2C(c2c(F)cccc2OC)=NC3)ccc1C(=O)O + NC1CC1c1ccc(-c2cccc(O)c2)cc1
86.2 nM: IC50 (second compound 0.1 µM)
98.9 nM: IC50 (second compound 0.316 µM)
47.7 nM: IC50 (second compound 10 µM)
54.5 nM: IC50 (second compound 3.16 µM)
inactive: viability, T/C (second compound 0.1 µM, first compound 0.00316 µM) 76.9% | viability, T/C (second compound 0.1 µM, first compound 0.01 µM) 73.1% | viability, T/C (second compound 0.1 µM, first compound 0.0316 µM) 60.4% | viability, T/C (second compound 0.1 µM, first compound 0.1 µM) 47.3% | viability, T/C (second compound 0.1 µM, first compound 0.316 µM) 47.1% | viability, T/C (second compound 0.1 µM, first compound 1 µM) 39.8% | viability, T/C (second compound 0.316 µM, first compound 0.00316 µM) 88.9% | viability, T/C (second compound 0.316 µM, first compound 0.01 µM) 84.4% | viability, T/C (second compound 0.316 µM, first compound 0.0316 µM) 63.9% | viability, T/C (second compound 0.316 µM, first compound 0.1 µM) 50.1% | viability, T/C (second compound 0.316 µM, first compound 0.316 µM) 49.6% | viability, T/C (second compound 0.316 µM, first compound 1 µM) 44.6% | viability, T/C (second compound 1 µM, first compound 0.00316 µM) 76.1% | viability, T/C (second compound 1 µM, first compound 0.01 µM) 82.1% | viability, T/C (second compound 1 µM, first compound 0.0316 µM) 57.4% | viability, T/C (second compound 1 µM, first compound 0.1 µM) 46.4% | viability, T/C (second compound 1 µM, first compound 0.316 µM) 47.8% | viability, T/C (second compound 1 µM, first compound 1 µM) 40.1% | viability, T/C (second compound 3.16 µM, first compound 0.00316 µM) 81.3% | viability, T/C (second compound 3.16 µM, first compound 0.01 µM) 72% | viability, T/C (second compound 3.16 µM, first compound 0.0316 µM) 53.6% | viability, T/C (second compound 3.16 µM, first compound 0.1 µM) 46.1% | viability, T/C (second compound 3.16 µM, first compound 0.316 µM) 44.3% | viability, T/C (second compound 3.16 µM, first compound 1 µM) 42.1% | viability, T/C (second compound 10 µM, first compound 0.00316 µM) 87.6% | viability, T/C (second compound 10 µM, first compound 0.01 µM) 72% | viability, T/C (second compound 10 µM, first compound 0.0316 µM) 50.7% | viability, T/C (second compound 10 µM, first compound 0.1 µM) 50.3% | viability, T/C (second compound 10 µM, first compound 0.316 µM) 49.7% | viability, T/C (second compound 10 µM, first compound 1 µM) 43.7%
62.3 nM: IC50 (second compound 1 µM)
